Experimental data: ChEMBL document CHEMBL1255229, “Novel antimicrobial peptides that exhibit activity against select agents and other drug resistant bacteria” (2010)
≈ marks a conversion by molar mass, not a printed value. Starred links: 1 amine or outer side, 2 acyl side, 3 side chain; linkers in the order of their positions; H or OH if unused. Non-standard residues stand in square brackets, D forms with d. Residues, ends and D or L forms follow the SMILES beside them. ξ: configuration not given here. Pro(3ξ,4ξ-(CH2)4) = O=C(O)[C@H]1NCC2CCCCC21; Oic = O=C(O)[C@@H]1C[C@@H]2CCCC[C@@H]2N1; X1 = O=C([C@@H]1CN([*:1])C2CCCCC21)[*:2]; Tic = O=C(O)[C@@H]1Cc2ccccc2CN1; Dap = NC[C@H](N)C(=O)O

Legend:
Type in all cases: functional
[1] = test system: Brucella suis; experiment: Antimicrobial activity against Brucella suis ATCC 23445 after 24 hrs; settings: ATCC 23445, 24 h
[2] = test system: Brucella melitensis; experiment: Antimicrobial activity against Brucella melitensis 16 M after 24 hrs
[3] = test system: Bacillus anthracis; experiment: Antimicrobial activity against Bacillus anthracis Ames after 24 hrs
[4] = test system: Burkholderia mallei; experiment: Antimicrobial activity against Burkholderia mallei ATCC 23444 after 24 hrs; settings: ATCC 23444, 24 h
[5] = test system: Brucella abortus; experiment: Antimicrobial activity against Brucella abortus 2308 after 24 hrs; settings: Brucella abortus, 2308, 24 h
[6] = test system: Staphylococcus aureus; experiment: Antimicrobial activity against methicillin-resistant Staphylococcus aureus ATCC 33591 after 24 hrs; settings: ATCC 33591, 24 h
[7] = test system: Acinetobacter baumannii; experiment: Antimicrobial activity against Acinetobacter baumannii ATCC 19606 after 24 hrs; settings: ATCC 19606 = CIP 70.34 = JCM 6841, 24 h
[8] = test system: Francisella tularensis; experiment: Antimicrobial activity against Francisella tularensis SCHU-S4 after 24 hrs; settings: SCHU-S4, 24 h
[9] = test system: Burkholderia pseudomallei; experiment: Antimicrobial activity against Burkholderia pseudomallei BURK003(1026b) after 24 hrs
[10] = test system: Acinetobacter baumannii; experiment: Antimicrobial activity against Acinetobacter baumannii WRAIR after 24 hrs
[11] = test system: Yersinia pestis; experiment: Antimicrobial activity against Yersinia pestis CO92 after 24 hrs; settings: CO92, 24 h

| Structure (SMILES) | MIC [1] [µM] | MIC [2] [µM] | MIC [3] [µM] | MIC [4] [µM] | MIC [5] [µM] | MIC [6] [µM] | MIC [7] [µM] | MIC [8] [µM] | MIC [9] [µM] | MIC [10] [µM] | MIC [11] [µM] |
| --- | --- | --- | --- | --- | --- | --- | --- | --- | --- | --- | --- |
| CC(=O)N[C@@H](Cc1ccccc1)C(=O)N1Cc2ccccc2C[C@H]1C(=O)N1CC2CCCCC2[C@H]1C(=O)N[C@@H](CCCCN)C(=O)N1Cc2ccccc2C[C@H]1C(=O)N1CC2CCCCC2[C@H]1C(=O)N[C@@H](Cc1ccccc1)C(=O)N1Cc2ccccc2C[C@H]1C(=O)N1CC2CCCCC2[C@H]1C(=O)N[C@@H](CCCCN)C(=O)N1Cc2ccccc2C[C@H]1C(=O)N[C@@H](CCCCN)C(=O)N[C@@H](CCCCN)C(=O)N[C@@H](CCCCN)C(=O)N[C@@H](CCCCN)C(=O)N[C@@H](CCCCN)C(=O)N[C@@H](CCCCN)C(N)=O (stereo not given in full) (Ac-F[Tic][Pro(3ξ,4ξ-(CH2)4)]K[Tic][Pro(3ξ,4ξ-(CH2)4)]F[Tic][Pro(3ξ,4ξ-(CH2)4)]K[Tic]KKKKKK-NH2) | 13 (≈ 32.1 µg/mL) | 202 (≈ 499 µg/mL) | 0.75 (≈ 1.85 µg/mL) | 202 (≈ 499 µg/mL) | 101 (≈ 249 µg/mL) | 25.3 (≈ 62.5 µg/mL) | 6.3 (≈ 15.6 µg/mL) | 202 (≈ 499 µg/mL) | 202 (≈ 499 µg/mL) | 6.3 (≈ 15.6 µg/mL) | 101 (≈ 249 µg/mL) |
| CC(C)C[C@H](NC(=O)[C@@H](N)CCCCN)C(=O)N1Cc2ccccc2C[C@H]1C(=O)N1C[C@@H](C(=O)N[C@@H](CCCCN)C(=O)N2Cc3ccccc3C[C@H]2C(=O)N2C[C@@H](C(=O)N[C@@H](Cc3ccccc3)C(=O)N3Cc4ccccc4C[C@H]3C(=O)N3C[C@@H](C(=O)N[C@@H](CCCCN)C(=O)N4Cc5ccccc5C[C@H]4C(=O)N4C[C@@H](C(=O)N[C@@H](Cc5ccccc5)C(=O)N5Cc6ccccc6C[C@H]5C(=O)N5C[C@@H](C(=O)N[C@@H](CCCCN)C(=O)N6Cc7ccccc7C[C@H]6C(=O)N6C[C@@H](C(=O)N[C@@H](CCCCN)C(=O)N[C@@H](CCCCN)C(=O)N[C@@H](CCCCN)C(=O)N[C@@H](CCCCN)C(N)=O)C7CCCCC76)C6CCCCC65)C5CCCCC54)C4CCCCC43)C3CCCCC32)C2CCCCC21 (stereo not given in full) (H-KL[Tic][X1]K[Tic][X1]F[Tic][X1]K[Tic][X1]F[Tic][X1]K[Tic][X1]KKKK-NH2) | 150 (≈ 497 µg/mL) | 150 (≈ 497 µg/mL) | 150 (≈ 497 µg/mL) | 150 (≈ 497 µg/mL) | 150 (≈ 497 µg/mL) | 150 (≈ 497 µg/mL) | 9.3 (≈ 30.8 µg/mL) | 150 (≈ 497 µg/mL) | 150 (≈ 497 µg/mL) | 150 (≈ 497 µg/mL) | 150 (≈ 497 µg/mL) |
| CC(=O)NCC(=O)N[C@@H](Cc1ccccc1)C(=O)N1Cc2ccccc2C[C@H]1C(=O)N1[C@H](C(=O)NCC(=O)N[C@@H](CCCCN)C(=O)N2Cc3ccccc3C[C@H]2C(=O)N2[C@H](C(=O)NCC(=O)N[C@@H](Cc3ccccc3)C(=O)N3Cc4ccccc4C[C@H]3C(=O)N3[C@H](C(=O)NCC(=O)N[C@@H](CCCCN)C(=O)N4Cc5ccccc5C[C@H]4C(=O)N[C@@H](CCCCN)C(=O)N[C@@H](CCCCN)C(=O)N[C@@H](CCCCN)C(=O)N[C@@H](CCCCN)C(N)=O)C[C@@H]4CCCC[C@@H]43)C[C@@H]3CCCC[C@@H]32)C[C@@H]2CCCC[C@@H]21 (Ac-GF[Tic][Oic]GK[Tic][Oic]GF[Tic][Oic]GK[Tic]KKKK-NH2) | 205 (≈ 500 µg/mL) | 205 (≈ 500 µg/mL) | 12.8 (≈ 31.2 µg/mL) | 205 (≈ 500 µg/mL) | 205 (≈ 500 µg/mL) | 205 (≈ 500 µg/mL) | 3.2 (≈ 7.81 µg/mL) | 100 (≈ 244 µg/mL) | 205 (≈ 500 µg/mL) | 3.2 (≈ 7.81 µg/mL) | 205 (≈ 500 µg/mL) |
| CC(=O)NCC(=O)N[C@@H](Cc1ccccc1)C(=O)N1Cc2ccccc2C[C@H]1C(=O)N1[C@H](C(=O)NCC(=O)N[C@@H](CN)C(=O)N2Cc3ccccc3C[C@H]2C(=O)N2[C@H](C(=O)NCC(=O)N[C@@H](Cc3ccccc3)C(=O)N3Cc4ccccc4C[C@H]3C(=O)N3[C@H](C(=O)NCC(=O)N[C@@H](CN)C(=O)N4Cc5ccccc5C[C@H]4C(=O)N[C@@H](CN)C(=O)N[C@@H](CN)C(=O)N[C@@H](CN)C(=O)N[C@@H](CN)C(N)=O)C[C@@H]4CCCC[C@@H]43)C[C@@H]3CCCC[C@@H]32)C[C@@H]2CCCC[C@@H]21 (Ac-GF[Tic][Oic]G[Dap][Tic][Oic]GF[Tic][Oic]G[Dap][Tic][Dap][Dap][Dap][Dap]-NH2) | 228 (≈ 499 µg/mL) | 228 (≈ 499 µg/mL) | 14.8 (≈ 32.4 µg/mL) | 228 (≈ 499 µg/mL) | 228 (≈ 499 µg/mL) | 114 (≈ 249 µg/mL) | 3.6 (≈ 7.88 µg/mL) | 228 (≈ 499 µg/mL) | 228 (≈ 499 µg/mL) | 3.6 (≈ 7.88 µg/mL) | 228 (≈ 499 µg/mL) |
| CC(=O)NCC(=O)N[C@@H](Cc1ccccc1)C(=O)N1Cc2ccccc2C[C@H]1C(=O)N1C[C@@H](C(=O)NCC(=O)N[C@@H](CCCNC(=N)N)C(=O)N2Cc3ccccc3C[C@H]2C(=O)N2C[C@@H](C(=O)NCC(=O)N[C@@H](Cc3ccccc3)C(=O)N3Cc4ccccc4C[C@H]3C(=O)N3C[C@@H](C(=O)NCC(=O)N[C@@H](CCCNC(=N)N)C(=O)N4Cc5ccccc5C[C@H]4C(=O)N[C@@H](CCCNC(=N)N)C(=O)N[C@@H](CCCNC(=N)N)C(=O)N[C@@H](CCCNC(=N)N)C(=O)N[C@@H](CCCNC(=N)N)C(N)=O)C4CCCCC43)C3CCCCC32)C2CCCCC21 (stereo not given in full) (Ac-GF[Tic][X1]GR[Tic][X1]GF[Tic][X1]GR[Tic]RRRR-NH2) | 192 (≈ 501 µg/mL) | 192 (≈ 501 µg/mL) | 5.98 (≈ 15.6 µg/mL) | 192 (≈ 501 µg/mL) | 192 (≈ 501 µg/mL) | 96 (≈ 250 µg/mL) | 5.98 (≈ 15.6 µg/mL) | 192 (≈ 501 µg/mL) | 192 (≈ 501 µg/mL) | 24 (≈ 62.6 µg/mL) | 192 (≈ 501 µg/mL) |
